Active and inactive are the calls of the source. No cut-off for these calls is given here.
Key:
[1] = tested on: MCF7; assay: Growth inhibition of human MCF7 cells at 10 uM after 48 hrs by sulforhodamine B assay; format: functional, cell-based
[2] = tested on: OVCAR-8; assay: Growth inhibition of human OVCAR8 cells at 10 uM after 48 hrs by sulforhodamine B assay; format: functional, cell-based
[3] = tested on: OVCAR-8; assay: Growth inhibition of human OVCAR8 cells after 48 hrs by sulforhodamine B assay; format: functional; details: OVCAR-8, 48 h
[4] = tested on: HL-60(TB); assay: Growth inhibition of human HL-60(TB) cells at 10 uM after 48 hrs by sulforhodamine B assay; format: functional, cell-based
[5] = tested on: HCT-15; assay: Growth inhibition of human HCT15 cells after 48 hrs by sulforhodamine B assay; format: functional; details: HCT-15, 48 h
[6] = tested on: A498; assay: Growth inhibition of human A498 cells at 10 uM after 48 hrs by sulforhodamine B assay; format: functional, cell-based
[7] = tested on: UO-31; assay: Growth inhibition of human UO31 cells after 48 hrs by sulforhodamine B assay; format: functional; details: UO-31, 48 h
[8] = tested on: SK-MEL-2; assay: Growth inhibition of human SK-MEL-2 cells after 48 hrs by sulforhodamine B assay; format: functional; details: SK-MEL-2, 48 h
[9] = tested on: T47D; assay: Growth inhibition of human T47D cells after 48 hrs by sulforhodamine B assay; format: functional
[10] = tested on: SF-268; assay: Growth inhibition of human SF268 cells at 10 uM after 48 hrs by sulforhodamine B assay; format: functional, cell-based
[11] = tested on: COLO 205; assay: Growth inhibition of human COLO205 cells at 10 uM after 48 hrs by sulforhodamine B assay; format: functional, cell-based
[12] = tested on: SK-MEL-5; assay: Growth inhibition of human SK-MEL-5 cells after 48 hrs by sulforhodamine B assay; format: functional; details: SK-MEL-5, 48 h
[13] = tested on: RXF 393; assay: Growth inhibition of human RXF393 cells at 10 uM after 48 hrs by sulforhodamine B assay; format: functional, cell-based
[14] = tested on: SW-620; assay: Growth inhibition of human SW620 cells at 10 uM after 48 hrs by sulforhodamine B assay; format: functional, cell-based
[15] = tested on: MDA-MB-231; assay: Growth inhibition of human MDA-MB-231 cells after 48 hrs by sulforhodamine B assay; format: functional; details: MDA-MB-231, 48 h
[16] = tested on: NCI-H226; assay: Growth inhibition of human NCI-H226 cells at 10 uM after 48 hrs by sulforhodamine B assay; format: functional, cell-based
[17] = tested on: SN12C; assay: Growth inhibition of human SN12C cells after 48 hrs by sulforhodamine B assay; format: functional
[18] = tested on: OVCAR-4; assay: Growth inhibition of human OVCAR4 cells after 48 hrs by sulforhodamine B assay; format: functional; details: OVCAR-4, 48 h
[19] = tested on: NCI-H460; assay: Growth inhibition of human NCI-H460 cells after 48 hrs by sulforhodamine B assay; format: functional; details: NCI-H460, 48 h
[20] = tested on: OVCAR-4; assay: Growth inhibition of human OVCAR4 cells at 10 uM after 48 hrs by sulforhodamine B assay; format: functional, cell-based
[21] = tested on: KM12; assay: Growth inhibition of human KM12 cells after 48 hrs by sulforhodamine B assay; format: functional; details: KM12, 48 h
[22] = tested on: HOP-92; assay: Growth inhibition of human HOP92 cells at 10 uM after 48 hrs by sulforhodamine B assay; format: functional, cell-based
[23] = tested on: ACHN; assay: Growth inhibition of human ACHN cells after 48 hrs by sulforhodamine B assay; format: functional
[24] = tested on: NCI/ADR-RES; assay: Growth inhibition of human NCI-ADR-RES cells after 48 hrs by sulforhodamine B assay; format: functional
[25] = tested on: EKVX; assay: Growth inhibition of human EKVX cells after 48 hrs by sulforhodamine B assay; format: functional
[26] = tested on: SR; assay: Growth inhibition of human SR cells after 48 hrs by sulforhodamine B assay; format: functional
[27] = tested on: M14; assay: Growth inhibition of human M14 cells at 10 uM after 48 hrs by sulforhodamine B assay; format: functional, cell-based
[28] = tested on: DU-145; assay: Growth inhibition of human DU145 cells at 10 uM after 48 hrs by sulforhodamine B assay; format: functional, cell-based
[29] = tested on: HCC 2998; assay: Growth inhibition of human HCC2998 cells at 10 uM after 48 hrs by sulforhodamine B assay; format: functional, cell-based
[30] = tested on: SF-539; assay: Growth inhibition of human SF539 cells at 10 uM after 48 hrs by sulforhodamine B assay; format: functional, cell-based
[31] = tested on: U-251; assay: Growth inhibition of human U251 cells after 48 hrs by sulforhodamine B assay; format: functional; details: U-251, 48 h
[32] = tested on: HCT-116; assay: Growth inhibition of human HCT116 cells at 10 uM after 48 hrs by sulforhodamine B assay; format: functional, cell-based
[33] = tested on: 786-0; assay: Growth inhibition of human 786-0 cells after 48 hrs by sulforhodamine B assay; format: functional; details: 786-0, 48 h
[34] = tested on: UACC-62; assay: Growth inhibition of human UACC62 cells after 48 hrs by sulforhodamine B assay; format: functional; details: UACC-62, 48 h
[35] = tested on: OVCAR-5; assay: Growth inhibition of human OVCAR5 cells after 48 hrs by sulforhodamine B assay; format: functional; details: OVCAR-5, 48 h
[36] = tested on: OVCAR-3; assay: Growth inhibition of human OVCAR3 cells at 10 uM after 48 hrs by sulforhodamine B assay; format: functional, cell-based
[37] = tested on: M14; assay: Growth inhibition of human M14 cells after 48 hrs by sulforhodamine B assay; format: functional; details: M14, 48 h
[38] = read-out: LC50 (the source's name)

Structure (SMILES): O=C1/C(=C\c2cccn2Cc2ccccc2)c2ccccc2N1c1c(Cl)cccc1Cl
- growth inhibition (GI) [1]: Active
- growth inhibition (GI) [2]: Active
- GI50 [3]: > 100 µM
- TGI [3]: > 100 µM
- CC50 [3, 38]: > 100 µM
- growth inhibition (GI) [4]: Active
- GI50 [5]: 0.37 µM
- TGI [5]: > 100 µM
- CC50 [5, 38]: > 100 µM
- growth inhibition (GI) [6]: Active
- GI50 [7]: 3.16 µM
- TGI [7]: > 100 µM
- CC50 [7, 38]: > 100 µM
- GI50 [8]: 2.23 µM
- TGI [8]: > 100 µM
- CC50 [8, 38]: > 100 µM
- GI50 [9]: 0.21 µM
- TGI [9]: 1.86 µM
- CC50 [9, 38]: > 100 µM
- growth inhibition (GI) [10]: Active
- growth inhibition (GI) [11]: Active
- GI50 [12]: 2.13 µM
- TGI [12]: > 100 µM
- CC50 [12, 38]: > 100 µM
- growth inhibition (GI) [13]: Active
- growth inhibition (GI) [14]: Active
- GI50 [15]: 5.88 µM
- TGI [15]: > 100 µM
- CC50 [15, 38]: > 100 µM
- growth inhibition (GI) [16]: Active
- GI50 [17]: > 100 µM
- TGI [17]: > 100 µM
- CC50 [17, 38]: > 100 µM
- GI50 [18]: 0.12 µM
- TGI [18]: > 100 µM
- CC50 [18, 38]: > 100 µM
- GI50 [19]: 4.16 µM
- TGI [19]: > 100 µM
- CC50 [19, 38]: > 100 µM
- growth inhibition (GI) [20]: Active
- GI50 [21]: 0.38 µM
- TGI [21]: > 100 µM
- CC50 [21, 38]: > 100 µM
- growth inhibition (GI) [22]: Active
- GI50 [23]: 8.31 µM
- TGI [23]: > 100 µM
- CC50 [23, 38]: > 100 µM
- GI50 [24]: > 100 µM
- TGI [24]: > 100 µM
- CC50 [24, 38]: > 100 µM
- GI50 [25]: 0.41 µM
- TGI [25]: 7.94 µM
- CC50 [25, 38]: > 100 µM
- GI50 [26]: > 100 µM
- TGI [26]: > 100 µM
- CC50 [26, 38]: > 100 µM
- growth inhibition (GI) [27]: Active
- growth inhibition (GI) [28]: Active
- growth inhibition (GI) [29]: Active
- growth inhibition (GI) [30]: Active
- GI50 [31]: > 100 µM
- TGI [31]: > 100 µM
- CC50 [31, 38]: > 100 µM
- growth inhibition (GI) [32]: Active
- GI50 [33]: > 100 µM
- TGI [33]: > 100 µM
- CC50 [33, 38]: > 100 µM
- GI50 [34]: 2.08 µM
- TGI [34]: > 100 µM
- CC50 [34, 38]: > 100 µM
- GI50 [35]: 3.89 µM
- TGI [35]: > 100 µM
- CC50 [35, 38]: > 100 µM
- growth inhibition (GI) [36]: Active
- GI50 [37]: > 100 µM
- TGI [37]: > 100 µM
- CC50 [37, 38]: > 100 µM

Source: ChEMBL document CHEMBL4177730, “Rational modification of semaxanib and sunitinib for developing a tumor growth inhibitor targeting ATP binding site of tyrosine kinase” (2018)
